Assay results as given in article PMC11722180, “Structure–Activity Relationship Studies of Tetracyclic Pyrrolocarbazoles Inhibiting Heterotetrameric Protein Kinase CK2” (Molecules, 2024).
Structures can show the parent of a compound that is named as a salt.

Molecular target: T1, CK2α/CK2β interaction (human CK2α1–335, human CK2β1–193) (Homo sapiens, UniProt P68400)
T1 construct: human CK2α^1–335; made in house
T1 sequence (P68400 1-335): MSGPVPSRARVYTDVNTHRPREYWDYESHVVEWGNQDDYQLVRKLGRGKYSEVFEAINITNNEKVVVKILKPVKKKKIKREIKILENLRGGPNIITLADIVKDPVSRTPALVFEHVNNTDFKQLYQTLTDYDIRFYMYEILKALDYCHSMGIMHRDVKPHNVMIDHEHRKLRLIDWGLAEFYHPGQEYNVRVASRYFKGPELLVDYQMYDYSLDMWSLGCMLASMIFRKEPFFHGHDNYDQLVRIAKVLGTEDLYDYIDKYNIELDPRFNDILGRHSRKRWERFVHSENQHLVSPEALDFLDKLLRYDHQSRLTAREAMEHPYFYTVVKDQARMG
Assay: Microscale thermophoresis (MST) assay of the CK2α/CK2β subunit interaction
Assay type: binding
Conditions: for Inhibition of CK2α/CK2β Interaction Ki / Ki: MST, global analysis, KD′ = KD [1 + (ccompound/Ki)], n.s. = KD′ not significantly different from KD; for Ki: read-out: Inhibition of CK2α/CK2β Interaction Ki
Protocol: A microscale thermophoresis (MST) assay was used to determine the interaction of the CK2α and CK2β subunits. In this assay, a constant concentration of the fluorescently labeled CK2β subunit was added to increasing concentrations of the CK2α subunit and the thermophoretic shift was recorded, respectively. […] The same experiment was performed in the presence of 20, 50, or 100 µM of the test compounds (see Table 1). An increased KD′ value in the presence of the test compounds was evaluated as the inhibition of the association of the CK2α and CK2β subunits. The increased KD′ value was then transformed together with the employed concentration of the test compound into the Ki value for the inhibition of the CK2α/CK2β association (formula see Supporting Information).
The compounds were investigated at a final concentration of 20, 50, or 100 µM. […] Data analysis and statistical evaluation were conducted with GraphPad Prism v.6 for Windows (GraphPad Software, La Jolla, CA, USA, www.graphpad.com).

SMILES | Kd [nM] | Inhibition of CK2α/CK2β Interaction Ki | Ki [nM] | Inhibition of CK2α/CK2β Interaction Ki (listed as 22c) | Inhibition of CK2α/CK2β Interaction Ki (listed as 23)
COc1cc([C@@H]2c3c([nH]c4ccccc34)[C@@H](C(=O)NCCc3c[nH]c4ccccc34)[C@@H]3C(=O)NC(=O)[C@H]23)cc(OC)c1OC (racemic) [(±)-14, (3aRS,4SR,10RS,10aRS)-N-[2-(Indol-3-yl)ethyl]-1,3-dioxo-10-(3,4,5-trimethoxyphenyl)-1,2,3,3a,4,5,10,10a-octahydropyrrolo[3,4-b]carbazole-4-carboxamide] | 158 ± 17 |  | 3800 |  | 
CNC(=O)[C@@H]1c2[nH]c3ccccc3c2[C@@H](c2cc(OC)c(OC)c(OC)c2)[C@H]2C(=O)NC(=O)[C@H]21 (racemic) [(±)-11, (3aRS,4SR,10RS,10aRS)-N-Methyl-1,3-dioxo-10-(3,4,5-trimethoxyphenyl)-1,2,3,3a,4,5,10,10a-octahydropyrrolo[3,4-b]carbazole-4-carboxamide] | 132 ± 43 |  | 6000 |  | 
COc1cc([C@@H]2c3c([nH]c4ccccc34)[C@@H](C(=O)Nc3cccnc3)[C@@H]3C(=O)NC(=O)[C@H]23)cc(OC)c1OC (racemic) [(±)-15, (3aRS,4SR,10RS,10aRS)-1,3-Dioxo-N-(pyridin-3-yl)-10-(3,4,5-trimethoxyphenyl)-1,2,3,3a,4,5,10,10a-octahydropyrrolo[3,4-b]carbazole-4-carboxamide] | 89 ± 13 |  | 7400 |  | 
COc1cc([C@@H]2c3c([nH]c4ccccc34)[C@@H](C(=O)O)[C@@H]3C(=O)NC(=O)[C@H]23)cc(OC)c1OC (racemic) [(±)-10, (3aRS,4SR,10RS,10aRS)-1,3-Dioxo-10-(3,4,5-trimethoxyphenyl)-1,2,3,3a,4,5,10,10a-octahydropyrrolo[3,4-b]carbazole-4-carboxylic acid] | 758 ± 338 |  | 1900 |  | 
COc1cc([C@@H]2c3c([nH]c4ccccc34)[C@@H](C(=O)NCc3ccccc3)[C@@H]3C(=O)NC(=O)[C@H]23)cc(OC)c1OC (racemic) [(±)-12, (3aRS,4SR,10RS,10aRS)-N-Benzyl-1,3-dioxo-10-(3,4,5-trimethoxyphenyl)-1,2,3,3a,4,5,10,10a-octahydropyrrolo[3,4-b]carbazole-4-carboxamide] | 62 ± 19 |  | 14000 |  | 
COc1cc([C@@H]2c3c([nH]c4ccccc34)[C@@H](C(=O)Nc3nc4ccccc4[nH]3)[C@@H]3C(=O)NC(=O)[C@H]23)cc(OC)c1OC (racemic) [(±)-17, (3aRS,4SR,10RS,10aRS)-N-(1H-Benzimidazol-2-yl)-1,3-dioxo-10-(3,4,5-trimethoxyphenyl)-1,2,3,3a,4,5,10,10a-octahydropyrrolo[3,4-b]carbazole-4-carboxamide] | 93 ± 13 |  | 7100 |  | 
COC(=O)[C@H](CCSC)NC(=O)[C@@H]1c2[nH]c3ccccc3c2[C@@H](c2cc(OC)c(OC)c(OC)c2)[C@H]2C(=O)NC(=O)[C@H]21 [(–)-19b, Methyl N-{[(3aR,4S,10R,10aR)-1,3-dioxo-10-(3,4,5-trimethoxyphenyl)-1,2,3,3a,4,5,10,10a-octahydropyrrolo[3,4-b]carbazol-4-yl]carbonyl}-(S)-methioninate] | 94 ± 24 |  | 7700 |  | 
COc1cc([C@@H]2c3c([nH]c4ccccc34)[C@@H](C(=O)N3CCCCC3)[C@@H]3C(=O)NC(=O)[C@H]23)cc(OC)c1OC (racemic) [(±)-16, (3aRS,4SR,10RS,10aRS)-4-[(Piperidin-1-yl)carbonyl]-10-(3,4,5-trimethoxyphenyl)-4,5,10,10a-tetrahydropyrrolo[3,4-b]carbazole-1,3(2H,3aH)-dione] | 72 ± 12 |  | 9700 |  | 
CCOC(=O)[C@H]1c2[nH]c3ccccc3c2[C@H](c2ccc(N)cc2)[C@@H]2C(=O)NC(=O)[C@@H]21 (racemic) [(±)-22a, Ethyl (3aRS,4SR,10RS,10aRS)-10-(4-aminophenyl)-1,3-dioxo-1,2,3,3a,4,5,10,10a-octahydropyrrolo[3,4-b]carbazole-4-carboxylate∙HCl] | 31 ± 11 | n.s. |  |  | 
COC(=O)[C@H](Cc1c[nH]cn1)NC(=O)[C@@H]1c2[nH]c3ccccc3c2[C@@H](c2cc(OC)c(OC)c(OC)c2)[C@H]2C(=O)NC(=O)[C@H]21 [(–)-20b, methyl N-{[(3aR,4S,10R,10aR)-1,3-dioxo-10-(3,4,5-trimethoxyphenyl)-1,2,3,3a,4,5,10,10a-octahydropyrrolo[3,4-b]carbazol-4-yl]carbonyl}-(S)-histidinate] | 29 ± 7 | n.s. |  |  | 
COC(=O)[C@H](CO)NC(=O)[C@H]1c2[nH]c3ccccc3c2[C@H](c2cc(OC)c(OC)c(OC)c2)[C@@H]2C(=O)NC(=O)[C@@H]21 [(+)-18a, Methyl N-{[(3aS,4R,10S,10aS)-1,3-dioxo-10-(3,4,5-trimethoxyphenyl)-1,2,3,3a,4,5,10,10a-octahydropyrrolo[3,4-b]carbazol-4-yl]carbonyl}-(S)-serinate] | 72 ± 2 |  | 9100 |  | 

Compounds with a lower Kd, results first:

Kd [nM] | Inhibition of CK2α/CK2β Interaction Ki | Ki [nM] | SMILES | Inhibition of CK2α/CK2β Interaction Ki (listed as 22c) | Inhibition of CK2α/CK2β Interaction Ki (listed as 23)
17 ± 3 | n.s. |  | COc1cc([C@@H]2c3c([nH]c4ccccc34)[C@@H](C(=O)NCc3ccc(Cl)cc3)[C@@H]3C(=O)NC(=O)[C@H]23)cc(OC)c1OC (racemic) [(±)-13, (3aRS,4SR,10RS,10aRS)-N-(4-Chlorobenzyl)-1,3-dioxo-10-(3,4,5-trimethoxyphenyl)-1,2,3,3a,4,5,10,10a-octahydropyrrolo[3,4-b]carbazole-4-carboxamide] |  | 
14 ± 6 | n.s. |  | CCOC(=O)[C@@H]1c2[nH]c3ccccc3c2[C@@H](c2cc(OC)c(OC)c(OC)c2)[C@H]2C(=O)N(C)C(=O)[C@H]21 (racemic) [(±)-9b, Ethyl (3aRS,4SR,10RS,10aRS)-2-methyl-1,3-dioxo-10-(3,4,5-trimethoxyphenyl)-1,2,3,3a,4,5,10,10a-octahydropyrrolo[3,4-b]carbazole-4-carboxylate] |  | 
25 ± 15 | n.s. |  | CCOC(=O)[C@H]1c2[nH]c3ccccc3c2[C@H](c2ccc(N)cc2)[C@@H]2C(=O)N(Cc3ccccc3)C(=O)[C@@H]21 (racemic) [(±)-22c, Ethyl (3aRS,4SR,10RS,10aRS)-10-(4-aminophenyl)-2-benzyl-1,3-dioxo-1,2,3,3a,4,5,10,10a-octahydropyrrolo[3,4-b]carbazole-4-carboxylate∙HCl] | did not result in a significant inhibition | 
20 ± 10 | n.s. |  | CCOC(=O)[C@@H]1c2[nH]c3ccccc3c2[C@@H](c2ccc([N+](=O)[O-])cc2)[C@H]2C(=O)NC(=O)[C@H]21 (racemic) [(±)-21a, Ethyl (3aRS,4SR,10RS,10aRS)-10-(4-nitrophenyl)-1,3-dioxo-1,2,3,3a,4,5,10,10a-octahydropyrrolo[3,4-b]carbazole-4-carboxylate] |  | 
24 ± 9 | n.s. |  | CCOC(=O)[C@@H]1c2[nH]c3ccccc3c2[C@@H](c2ccc(NC(=O)c3ccc(OC)cc3)cc2)[C@H]2C(=O)N(Cc3ccccc3)C(=O)[C@H]21 (racemic) [(±)-23, Ethyl (3aRS,4SR,10RS,10aRS)-2-benzyl-10-[4-(4-methoxybenzamido)phenyl]-1,3-dioxo-1,2,3,3a,4,5,10,10a-octahydropyrrolo[3,4-b]carbazole-4-carboxylate] |  | did not result in a significant inhibition
